# Test results taken from patent publication US20250066377A1, “AMINO CHROMEN-2-ONE MODULATORS OF POLRMT” (Pretzel Therapeutics, Inc., priority 2021, published 2025).
# Molecular target: POLRMT (Homo sapiens (Human), UniProt O00411)
# Experiment: POLRMT homogeneous TR-FRET mitochondrial transcription assay
# Assay type: biochemical
# Settings: inhibition of POLRMT; TR-FRET detection of 407 bp RNA transcript; 7.5 nM POLRMT, 15 nM TFB2M, 30 nM TFAM, 60 minutes at 37° C.
# Procedure: The inhibitory activity of the compounds of the present invention against POLRMT were determined by assays based on Bergbrede, T., et al., “An adaptable high-throughput technology enabling the identification of specific transcription modulators,” SLAC Discov., 22, 378-386 (2017).
# The ability of some compounds of the present invention to inhibit POLRMT were determined in a homogeneous TR-FRET Assay using high-throughput screening in a 384-well plate format. This method is used to monitor the activity of mitochondrial transcription through measurement of its product, a 407 bp long RNA transcript. Detection of the product is facilitated by hybridization of two DNA-oligonucleotide probes to specific and adjacent sequences within the RNA product sequence. Upon annealing of the probes, two fluorophores are coupled directly to an acceptor nucleotide probe (ATTO647, 5′), or introduced via a coupled streptavidin with a biotinylated donor nucleotide probe (Europium cryptate) that is brought into sufficient proximity to serve as a fluorescence-donor-acceptor pair. Thus, a FRET signal at 665 nm is generated upon excitation at 340 nm.
# Proteins used as transcription factors (POLRMT: NP_005026.3, TFAM: NP_003192.1, TFB2M: NP_071761.1) are diluted from their stocks to working concentrations of 1 μM, 20 μM and 4 μM respectively, in a dilution buffer containing 20 mM Tris-HCl (pH 8.0), 200 mM NaCl, 10% (v/v) glycerol, 1 mM Dithiothreitol (DTT), 0.5 mM EDTA.
# DNA template is a pUC18 plasmid with the mitochondrial light strand promotor sequence (1-477) cloned between HindIII and BamHI sites. The DNA template is restriction linearized proximal to the promotor 3′-end (pUC-LSP).
# The reaction mixture (10 uL) containing 7.5 nM POLRMT, 15 nM of TFB2M, 30 nM of TFAM, 0.5 nM of DNA template and 500 μM nucleotide triphosphate mix (NTPs) in a reaction buffer (containing 10 mM Tris-HCl (pH 7.5), 10 mM MgCl2, 40 mM NaCl, 10 mM DTT, 0.005% (w/v) Tween-20, 160 units/ml Rnase inhibitor and 0.1 mg/mL BSA) are dispensed to compounds in microplates, using a Thermo Multidrop® dispenser, and incubated at 37° C. in a VWR INCU-Line incubator for 60 minutes after mixing. No nucleotide triphosphate mix is added to negative control samples. Microplates with compounds to be tested in the assay are prepared from 10 mM compound stocks in 100% DMSO, equal amounts of DMSO without any compound are added to positive control and negative control samples.
# During the incubation, a mix of the detection reagents is prepared in a buffer such that the enzymatic reaction is terminated due to chelating of Mg-ions and increased ionic strength, containing 50 mM Tris-HCl (pH 7.5), 700 mM NaCl, 20 mM EDTA, and 0.01% (w/v) Tween-20. Europium-streptavidin is pre-incubated with a 200-fold molar excess of a random sequence oligonucleotide to block unspecific binding of oligo, for two hours at ambient temperature in the dark. Afterwards, the blocked Europium-streptavidin is kept on ice until use.
# At the end of the enzymatic reaction time, 5 μL detection oligo mix in the detection buffer is added, and assay plates are mixed and kept at ambient temperature for one hour, protected from light. The concentration of the Acceptor nucleotide oligo (e.g., ATTO647N-5′-[…]-3′) and Donor nucleotide oligo (e.g., bio-5′-AACACATCTCT(-bio)GCCAAACCCCA-bio-3′) in each assay well is 1 nM, and 3 nM, respectively.
# After incubation with oligo mix, 5 μL of pre-blocked Europium-streptavidin reagent is dispensed to each assay well, assay plates are again mixed and kept at ambient temperature for one hour, protected from light.
# The generated signal is measured with BMG Pherastar microtiter plate reader with a TRF light unit, using excitation at 340 nm, an integration time of 200 μs, and a delay time of 100 μs, before detection at 620 nm and 665 nm. The ratio of donor- and acceptor-fluorescence is used as a measure of the generated transcript product (i.e. enzymatic activity).
# Sequence of POLRMT (O00411 42-1230): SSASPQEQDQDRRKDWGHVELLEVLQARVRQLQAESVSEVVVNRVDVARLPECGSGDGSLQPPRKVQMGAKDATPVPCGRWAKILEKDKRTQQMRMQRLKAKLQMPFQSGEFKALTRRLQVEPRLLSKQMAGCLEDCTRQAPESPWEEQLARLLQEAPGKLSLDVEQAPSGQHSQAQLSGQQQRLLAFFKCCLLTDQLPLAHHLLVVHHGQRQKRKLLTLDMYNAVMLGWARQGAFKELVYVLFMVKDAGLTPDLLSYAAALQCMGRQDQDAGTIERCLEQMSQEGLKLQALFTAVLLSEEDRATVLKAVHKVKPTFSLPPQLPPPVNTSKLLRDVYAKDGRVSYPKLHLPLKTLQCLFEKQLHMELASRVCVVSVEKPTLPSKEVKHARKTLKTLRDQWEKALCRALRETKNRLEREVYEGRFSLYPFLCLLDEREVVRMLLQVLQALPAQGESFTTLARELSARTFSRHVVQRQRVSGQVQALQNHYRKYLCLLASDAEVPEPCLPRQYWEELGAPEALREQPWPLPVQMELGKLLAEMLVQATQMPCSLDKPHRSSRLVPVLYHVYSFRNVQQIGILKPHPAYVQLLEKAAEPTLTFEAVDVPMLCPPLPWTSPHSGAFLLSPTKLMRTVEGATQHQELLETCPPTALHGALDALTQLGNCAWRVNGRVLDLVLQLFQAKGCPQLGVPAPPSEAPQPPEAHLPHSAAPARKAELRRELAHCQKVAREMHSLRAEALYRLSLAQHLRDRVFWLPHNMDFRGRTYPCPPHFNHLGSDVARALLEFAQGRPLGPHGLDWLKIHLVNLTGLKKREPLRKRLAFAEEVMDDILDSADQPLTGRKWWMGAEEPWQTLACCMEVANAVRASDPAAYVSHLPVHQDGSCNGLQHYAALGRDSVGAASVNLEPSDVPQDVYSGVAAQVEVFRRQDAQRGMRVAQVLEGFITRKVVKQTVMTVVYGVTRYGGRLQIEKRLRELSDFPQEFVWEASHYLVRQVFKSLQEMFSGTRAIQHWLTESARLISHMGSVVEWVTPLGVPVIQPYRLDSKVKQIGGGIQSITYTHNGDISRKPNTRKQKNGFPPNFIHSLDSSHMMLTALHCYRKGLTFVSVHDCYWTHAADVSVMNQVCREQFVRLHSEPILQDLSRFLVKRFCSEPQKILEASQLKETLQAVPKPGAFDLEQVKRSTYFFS
row,Structure (SMILES),IC50
1,"COCC1CCN(c2ccc3c(-c4ccccc4C)cc(=O)oc3n2)C1 (racemic) [Example 12, 7-(3-(methoxymethyl)pyrrolidin-1-yl)-4-(o-tolyl)-2H-pyrano[2,3-b]pyridin-2-one]",900 nM
2,"Cc1ccccc1-c1cc(=O)oc2nc(N3CCC(C(N)=O)C3)ccc12 (racemic) [Example 16, 1-(2-oxo-4-(o-tolyl)-2H-pyrano[2,3-b]pyridin-7-yl)pyrrolidine-3-carboxamide]",2000 nM
3,"Cc1ccccc1-c1cc(=O)oc2nc(N3CCOCC3C)ccc12 (single isomer, unassigned) [Example 15, 7-(3-methylmorpholino)-4-(o-tolyl)-2H-pyrano[2,3-b]pyridin-2-one]",2000 nM
4,"COC1CCN(c2ccc3c(-c4ccccc4C)cc(=O)oc3n2)C1 (single isomer, unassigned) [Example 24, 7-(3-methoxypyrrolidin-1-yl)-4-(o-tolyl)-2H-pyrano[2,3-b]pyridin-2-one]",3000 nM
5,"COC1CCN(c2ccc3c(-c4ccc(F)cc4Cl)cc(=O)oc3n2)C1 (single isomer, unassigned) [Example 25, 4-(2-chloro-4-fluorophenyl)-7-(3-methoxypyrrolidin-1-yl)-2H-pyrano[2,3-b]pyridin-2-one]",1000 nM
6,"COC1CCN(c2ccc3c(-c4ccc(F)cc4Cl)cc(=O)oc3n2)C1 (single isomer, unassigned) [Example 26, 4-(2-chloro-4-fluorophenyl)-7-(3-methoxypyrrolidin-1-yl)-2H-pyrano[2,3-b]pyridin-2-one]",21000 nM
7,"Cc1ccccc1-c1cc(=O)oc2nc(N3CCC(C)(O)C3)ccc12 (single isomer, unassigned) [Example 27, 7-(3-hydroxy-3-methylpyrrolidin-1-yl)-4-(o-tolyl)-2H-pyrano[2,3-b]pyridin-2-one]",1000 nM
8,"Cc1ccccc1-c1cc(=O)oc2nc(N3CCC(C)(O)C3)ccc12 (single isomer, unassigned) [Example 28, 7-(3-hydroxy-3-methylpyrrolidin-1-yl)-4-(o-tolyl)-2H-pyrano[2,3-b]pyridin-2-one]",1000 nM
9,"Cc1ccccc1-c1cc(=O)oc2nc(N3CCC(C(N)=O)C3)ccc12 (single isomer, unassigned) [Example 29, 1-(2-oxo-4-(o-tolyl)-2H-pyrano[2,3-b]pyridin-7-yl)pyrrolidine-3-carboxamide]",7000 nM

# Next, values leading:
row,IC50,Structure (SMILES)
1,400 nM,"COC1CCN(c2ccc3c(-c4ccccc4C)cc(=O)oc3n2)C1 (racemic) [Example 07, 7-(3-methoxypyrrolidin-1-yl)-4-(o-tolyl)-2H-pyrano[2,3-b]pyridin-2-one]"
2,300 nM,"Cc1ccccc1-c1cc(=O)oc2nc(N3CCC(C)(O)C3)ccc12 (racemic) [Example 13, 7-(3-hydroxy-3-methylpyrrolidin-1-yl)-4-(o-tolyl)-2H-pyrano[2,3-b]pyridin-2-one]"
3,400 nM,"Cc1ccccc1-c1cc(=O)oc2nc(N3CCOCC3C)ccc12 (single isomer, unassigned) [Example 14, 7-(3-methylmorpholino)-4-(o-tolyl)-2H-pyrano[2,3-b]pyridin-2-one]"
4,90 nM,"COC1CCN(c2ccc3c(-c4ccccc4C)cc(=O)oc3n2)C1 (single isomer, unassigned) [Example 23, 7-(3-methoxypyrrolidin-1-yl)-4-(o-tolyl)-2H-pyrano[2,3-b]pyridin-2-one]"
5,900 nM,"Cc1ccccc1-c1cc(=O)oc2nc(N3CCC(C(N)=O)C3)ccc12 (single isomer, unassigned) [Example 30, 1-(2-oxo-4-(o-tolyl)-2H-pyrano[2,3-b]pyridin-7-yl)pyrrolidine-3-carboxamide]"
6,400 nM,"COCC1CCN(c2ccc3c(-c4ccccc4C)cc(=O)oc3n2)C1 (single isomer, unassigned) [Example 31, 7-(3-(methoxymethyl)pyrrolidin-1-yl)-4-(o-tolyl)-2H-pyrano[2,3-b]pyridin-2-one]"
